We go through 6 compounds from patent US8487118B2, “Cyclic diones and their use as insecticides, acaricides and/or fungicides” (Bayer CropScience AG, priority 2009, dated 2013).

The test system of data set [1] is braun planthopper (Nilaparvata lugens). Kind of data set: Nilaparvata lugens-Test (NILALU hydroponic application). The data set is classed as in vivo. The conditions noted are these: after the specified period of time. The source says:
Nilaparvata lugens-Test; (NILALU Hydroponic Application)
(§1) • Solvent: 78.0 parts by weight of acetone • 1.5 parts by weight of dimethylformamide • Emulsifier: 0.5 parts by weight of alkylaryl polyglycolether

The test system of data set [2] is cotton aphid (Aphis gossypii). The data set can be described thus: Aphis gossypii Test (APHIGO). The format is in vivo. The conditions noted are these: 144 h, spray on cotton leaves, after 6 days. As for the experimental part: Aphis gossypii Test (APHIGO)
(§2) After 6 days mortality in % is determined.

The test system of data set [3] is green peach aphid (Myzus persicae). Kind of data set: Myzus persicae-Test (MYZUPE). The format is in vivo. The conditions noted are these: 144 h, spray on cabbage leaves, after 6 days. Here is the method:
Myzus persicae-Test (MYZUPE)
as §2

Data set [4] concerns white fly (Bemisia tabaci). Kind of data set: Bemisia tabaci-Test (BEMITA). The format is in vivo. The conditions noted are these: 168 h, spray on cotton plants, after 7 days. The source says:
Bemisia tabaci-Test (BEMITA)
Cotton plants (Gossypium hirsutum) infested with eggs, larvae and pupae of the white fly (Bemisia tabaci) are sprayed with a test solution containing the desired concentration of the active ingredient.

Data set [5] has as its system larvae of the diamondback moth (Plutella xylostella/sensible strain). Kind of data set: Plutella xylostella-Test (PLUTMA). The data set is classed as in vivo. The conditions noted are these: in Brassica oleracea, 168 h, read-out: mortality in %. The source says: Plutella xylostella-Test (PLUTMA)
Data set [6] has as its system mustard beetle larvae (Phaedon cochleariae). The data set can be described thus: Phaedon cochleariae larvae-Test. The conditions noted are these: in Brassica oleracea, 168 h, read-out: mortality in %.
The test system of data set [7] is fall armyworm larvae (Spodoptera frugiperda). The data set can be described thus: Spodoptera frugiperda-Test (SPODFR spray application). The format is in vivo. The conditions noted are these: 168 h, spray on maize leaf sections, after 7 days. The source says:
Spodoptera frugiperda-Test (SPODFR Spray Application)
(§3) • Solvent: 78.0 parts by weight acetone • 1.5 parts by weight dimethylformamide • Emulsifier: 0.5 parts by weight alkylarylpolyglcolether
Maize (Zea mais) leaf sections are sprayed with a preparation of the active ingredient of the desired concentration. Once dry, the leaf sections are infested with fall armyworm larvae (Spodoptera frugiperda). […] 100% means that all caterpillars have been killed and 0% means that none of the caterpillars have been killed.

Another data set concerns Phytophthora infestans. The data set is classed as in vivo. The conditions noted are these: 500 ppm, tomato, preventive, 7 days after the inoculation.
Data set [8] concerns two spotted spidermite (Tetranychus urticae). Kind of data set: Tetranychus urticae-Test, OP-resistant (TETRUR spray application). The format is in vivo. To be noted: 144 h, spray on French beans, after 6 days.
Text: Tetranychus urticae-Test; (OP-Resistant (TETRUR Spray Application)
as §3

Data set [9] has as its system am. serpentine leaf miner (Liriomyza trifolii). Kind of data set: Liriomyza trifolii-Test (LIRITR spray application). The format is in vivo. The conditions noted are these: 168 h, spray on French bean leaf-disks, after 7 days.
Text: Liriomyza trifolii-Test (LIRITR Spray Application)
as §1
French bean (Phaseolus vulgaris) leaf-disks infested with larvaes of the am. serpentine leaf miner (Liriomyza trifolii) are sprayed with a test solution containing the desired concentration of the active ingredient.

The subject of data set [10] is green peach aphid (Myzus persicae). Kind of data set: Myzus persicae-Test (MYZUPE spray application). The format is in vivo. The conditions noted are these: 144 h, spray on Chinese cabbage leaf-disks, after 6 days.
Text: Myzus persicae-Test; (MYZUPE Spray Application)
as §3
Chinese cabbage (Brassica pekinesis) leaf-disks infected with all instars of the green peach aphid (Myzus persicae), are sprayed with a preparation of the active ingredient at the desired concentration.

Data set [11] deals with two-spotted spider mite (Tetranychus urticae). Kind of data set: Tetranychus-Test (OP-resistant). The data set is classed as in vivo. The conditions noted are these: read-out: mortality in %. The source says: Tetranychus-Test (OP-Resistant)
Data set [12] relates to mustard beetle larvae (Phaedon cochleariae). Kind of data set: Phaedon cochleariae-Test (PHAECO spray application). The data set is classed as in vivo. The conditions noted are these: 168 h, spray on Chinese cabbage leaf-disks, after 7 days.
Text: Phaedon cochleariae-Test; (PHAECO Spray Application)
as §1
Chinese cabbage (Brassica pekinesis) leaf-disks are sprayed with a preparation of the active ingredient of the desired concentration.

Structures are written as SMILES.

`Cc1ccc(C)c(C2=C(OC(=O)N(C)CCC#N)CC3(CCOCC3)CC2=O)c1` gave a melting point of 108 to 114 °C.

On to `Cc1ccc(-c2ccc(Cl)cc2)cc1C1=C(O)CC2(CCOCC2)CC1=O` [Compound T3], for which the mortality at 500 g/ha in [1], in data set [7], in [8] and in data set [9] was not below 80% in each case. Further, the mortality at 100 ppm in data set [2], in data set [3], in data set [5] and in data set [6] was not below 80% each time. In data set [4], this compound displayed a mortality at 20 ppm not below 80%. The compound also yielded an Efficacy in % with Phytophthora infestans of 75%.

Consider `CCc1cc(C)cc(CC)c1C1=C(O)CC2(CCOCC2)CC1=O` [Compound T22], for which, in data set [10], the mortality at 500 g/ha was not below 80%.

Take `Cc1ccc(-c2ccc(F)cc2)cc1C1=C(O)CC2(CCOCC2)CC1=O` [Compound T74]: the mortality at 500 g/ha in [1], in [12], in data set [7] and in data set [9] was not below 80% in each case. The mortality at 20 ppm in data set [11] and in data set [4] was not below 80% each time.

`O=C1CC2(CCOCC2)CC(O)=C1c1cc(-c2ccc(F)cc2)ccc1Cl` [Compound T75]: the mortality at 20 ppm in data set [4] was not below 80%. In addition, the mortality at 500 g/ha in data set [10], in data set [8] and in data set [9] was not below 80% each time.

`Cc1ccc(-c2ccc(F)cc2)c(C)c1C1=C(O)CC2(CCOCC2)CC1=O` [Compound T76]: the mortality at 500 g/ha in data set [12], in data set [10], in data set [7] and in data set [8] was not below 80% each time.
